Active and inactive are the calls of the source. The rule behind the calls is not given here.
What was measured:
[1] = Antiproliferative activity against human KB-VIN10 cells incubated for 72 hrs by SRB assay; format: functional, cell-based; conditions: KB-VIN10, 72 h
[2] = tested on: MDA-MB-231; test: Antiproliferative activity against human MDA-MB-231 cells incubated for 72 hrs by SRB assay; format: functional, cell-based; conditions: MDA-MB-231, 72 h
[3] = tested on: MCF7; test: Antiproliferative activity against human MCF7 cells incubated for 72 hrs by SRB assay; format: functional, cell-based; conditions: MCF7, 72 h
[4] = tested on: A549; test: Antiproliferative activity against human A549 cells harbouring wild type EGFR incubated for 72 hrs by SRB assay; format: functional, cell-based; conditions: A549, 72 h
[5] = tested on: KB; test: Antiproliferative activity against human KB cells incubated for 72 hrs by SRB assay; format: functional, cell-based
[6] = tested on: NCI-H1975; test: Antiproliferative activity against human NCI-H1975 cells assessed as induction of NO production at 100 uM incubated for 150 mins by Griess reagent based assay; format: functional, cell-based
[7] = tested on: NCI-H1975; test: Antiproliferative activity against human NCI-H1975 cells incubated for 72 hrs by MTS assay; format: functional, cell-based; conditions: NCI-H1975, 72 h
[8] = tested on: NCI-H1975; test: cells; format: functional, cell-based; conditions: Homo sapiens, NCI-H1975, 72 h
[9] = target: Epidermal growth factor receptor (Homo sapiens, UniProt P00533, L858R/T790M); test: biochemical; format: cell-based, Sf9
[10] = target: Epidermal growth factor receptor (Homo sapiens, UniProt P00533); test: biochemical; format: cell-based, Sf9
[11] = target: Epidermal growth factor receptor (Homo sapiens, UniProt P00533, C797S/L858R/T790M); test: biochemical; format: cell-based, Sf9
Chain of Epidermal growth factor receptor (Homo sapiens, UniProt P00533, C797S/L858R/T790M) (P00533 25-1210 T790M/C797S/L858R limits assumed): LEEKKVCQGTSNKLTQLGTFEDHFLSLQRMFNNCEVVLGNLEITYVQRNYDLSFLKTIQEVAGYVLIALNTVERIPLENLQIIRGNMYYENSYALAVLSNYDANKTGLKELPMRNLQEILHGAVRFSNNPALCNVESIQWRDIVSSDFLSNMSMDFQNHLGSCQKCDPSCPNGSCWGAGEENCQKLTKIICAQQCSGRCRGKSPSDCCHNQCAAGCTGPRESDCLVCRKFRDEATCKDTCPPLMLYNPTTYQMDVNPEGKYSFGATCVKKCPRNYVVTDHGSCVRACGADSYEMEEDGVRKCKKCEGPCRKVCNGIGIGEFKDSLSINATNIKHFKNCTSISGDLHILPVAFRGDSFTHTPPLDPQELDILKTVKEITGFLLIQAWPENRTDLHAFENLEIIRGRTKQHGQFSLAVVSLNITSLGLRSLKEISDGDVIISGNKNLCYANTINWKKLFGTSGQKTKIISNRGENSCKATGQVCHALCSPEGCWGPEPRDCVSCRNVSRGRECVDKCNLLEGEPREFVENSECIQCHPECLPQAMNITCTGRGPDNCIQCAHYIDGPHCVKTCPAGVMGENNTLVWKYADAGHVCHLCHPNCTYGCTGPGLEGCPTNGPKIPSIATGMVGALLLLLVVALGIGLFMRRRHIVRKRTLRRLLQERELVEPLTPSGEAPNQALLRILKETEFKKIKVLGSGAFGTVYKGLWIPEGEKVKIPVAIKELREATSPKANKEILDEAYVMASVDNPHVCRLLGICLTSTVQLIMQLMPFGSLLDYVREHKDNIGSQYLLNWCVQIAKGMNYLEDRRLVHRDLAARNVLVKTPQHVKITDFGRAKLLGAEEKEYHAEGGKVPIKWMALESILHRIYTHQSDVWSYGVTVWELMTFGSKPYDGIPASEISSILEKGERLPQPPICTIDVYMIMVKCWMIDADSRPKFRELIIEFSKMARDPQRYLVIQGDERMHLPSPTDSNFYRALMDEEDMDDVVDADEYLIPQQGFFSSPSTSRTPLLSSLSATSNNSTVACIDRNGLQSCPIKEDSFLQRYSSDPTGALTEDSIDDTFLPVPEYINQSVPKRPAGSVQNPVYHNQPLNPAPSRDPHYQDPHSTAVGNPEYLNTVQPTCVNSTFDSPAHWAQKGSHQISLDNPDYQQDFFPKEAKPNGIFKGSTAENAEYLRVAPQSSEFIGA

Chain of Epidermal growth factor receptor (Homo sapiens, UniProt P00533, L858R/T790M) (P00533 25-1210 T790M/L858R limits assumed): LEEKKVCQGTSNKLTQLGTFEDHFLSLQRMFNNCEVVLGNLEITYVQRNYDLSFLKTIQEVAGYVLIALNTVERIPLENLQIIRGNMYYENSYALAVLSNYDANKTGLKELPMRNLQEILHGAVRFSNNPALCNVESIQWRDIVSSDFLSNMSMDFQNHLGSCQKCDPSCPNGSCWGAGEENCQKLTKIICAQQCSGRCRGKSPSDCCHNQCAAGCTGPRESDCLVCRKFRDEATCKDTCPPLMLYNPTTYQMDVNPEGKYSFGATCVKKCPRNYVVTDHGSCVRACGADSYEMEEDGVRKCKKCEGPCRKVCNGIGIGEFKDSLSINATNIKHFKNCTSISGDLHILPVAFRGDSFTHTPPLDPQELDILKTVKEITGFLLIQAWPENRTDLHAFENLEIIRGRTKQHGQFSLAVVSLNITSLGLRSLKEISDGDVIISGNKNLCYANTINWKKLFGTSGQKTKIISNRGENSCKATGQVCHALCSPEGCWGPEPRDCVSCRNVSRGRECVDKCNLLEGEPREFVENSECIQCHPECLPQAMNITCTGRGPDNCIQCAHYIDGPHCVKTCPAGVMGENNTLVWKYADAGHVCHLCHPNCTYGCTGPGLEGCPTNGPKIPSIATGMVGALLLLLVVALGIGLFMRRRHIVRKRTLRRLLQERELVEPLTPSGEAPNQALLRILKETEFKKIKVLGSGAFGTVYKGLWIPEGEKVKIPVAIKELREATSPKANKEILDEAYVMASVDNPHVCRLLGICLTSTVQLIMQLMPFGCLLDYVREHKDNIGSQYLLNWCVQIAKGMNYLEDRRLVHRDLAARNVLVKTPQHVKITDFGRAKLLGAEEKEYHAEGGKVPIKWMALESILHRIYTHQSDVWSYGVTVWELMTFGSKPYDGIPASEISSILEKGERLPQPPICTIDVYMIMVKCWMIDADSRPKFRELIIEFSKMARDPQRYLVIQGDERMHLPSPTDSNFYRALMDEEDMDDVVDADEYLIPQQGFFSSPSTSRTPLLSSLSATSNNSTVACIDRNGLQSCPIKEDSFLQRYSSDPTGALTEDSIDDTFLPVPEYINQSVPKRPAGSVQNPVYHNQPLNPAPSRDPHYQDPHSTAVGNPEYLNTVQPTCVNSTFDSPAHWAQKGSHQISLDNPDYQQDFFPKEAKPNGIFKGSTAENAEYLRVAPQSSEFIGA
Chain of Epidermal growth factor receptor (Homo sapiens, UniProt P00533) (P00533 whole entry): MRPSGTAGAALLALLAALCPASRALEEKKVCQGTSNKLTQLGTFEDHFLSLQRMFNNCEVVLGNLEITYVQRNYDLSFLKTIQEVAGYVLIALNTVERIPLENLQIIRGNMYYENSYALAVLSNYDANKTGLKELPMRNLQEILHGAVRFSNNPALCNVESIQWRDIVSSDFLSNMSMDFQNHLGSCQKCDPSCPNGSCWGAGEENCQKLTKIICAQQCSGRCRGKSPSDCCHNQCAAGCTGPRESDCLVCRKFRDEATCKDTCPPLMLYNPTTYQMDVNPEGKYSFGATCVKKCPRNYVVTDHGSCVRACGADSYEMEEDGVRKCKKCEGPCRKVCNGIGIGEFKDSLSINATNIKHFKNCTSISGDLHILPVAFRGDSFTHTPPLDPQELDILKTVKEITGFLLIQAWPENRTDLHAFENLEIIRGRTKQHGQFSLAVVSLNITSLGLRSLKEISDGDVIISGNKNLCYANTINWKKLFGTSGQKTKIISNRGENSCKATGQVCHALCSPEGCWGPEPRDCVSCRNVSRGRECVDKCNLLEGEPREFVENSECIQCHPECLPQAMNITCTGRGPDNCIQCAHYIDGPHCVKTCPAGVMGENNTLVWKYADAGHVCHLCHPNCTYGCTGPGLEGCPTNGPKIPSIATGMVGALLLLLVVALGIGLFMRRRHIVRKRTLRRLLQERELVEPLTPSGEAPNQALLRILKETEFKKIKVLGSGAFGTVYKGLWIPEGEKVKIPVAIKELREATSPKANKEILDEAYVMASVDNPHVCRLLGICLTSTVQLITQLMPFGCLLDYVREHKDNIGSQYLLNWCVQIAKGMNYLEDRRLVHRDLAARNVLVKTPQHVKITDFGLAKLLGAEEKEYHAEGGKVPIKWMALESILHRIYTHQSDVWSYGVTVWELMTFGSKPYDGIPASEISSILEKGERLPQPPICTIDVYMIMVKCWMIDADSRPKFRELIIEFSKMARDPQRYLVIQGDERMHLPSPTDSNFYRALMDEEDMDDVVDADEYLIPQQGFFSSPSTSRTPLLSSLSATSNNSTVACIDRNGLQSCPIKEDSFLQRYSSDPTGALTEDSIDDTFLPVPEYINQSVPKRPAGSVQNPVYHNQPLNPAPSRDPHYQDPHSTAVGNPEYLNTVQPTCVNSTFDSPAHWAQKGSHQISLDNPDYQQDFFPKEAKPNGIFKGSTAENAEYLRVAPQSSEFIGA

SMILES | IC50 [1] | IC50 [2] | IC50 [3] | IC50 [4] | IC50 [5] | Activity [6] | IC50 [7] | IC50 [8] | IC50 [9] | IC50 [10] | IC50 [11]
CC(=O)OC[C@@]1(C)[C@@H]2CC[C@]3(C)[C@H](CC=C4[C@@H]5CC(C)(C)CC[C@]5(C(=O)O)CC[C@]43C)[C@@]2(C)CC[C@@H]1OC(C)=O | 8.5 µM | > 10 µM | > 10 µM | – | – | – | – | – | – | – | –
CC(=O)O[C@H]1CC[C@]2(C)[C@H]3CC=C4[C@@H]5CC(C)(C)CC[C@]5(C(=O)O)CC[C@@]4(C)[C@]3(C)CC[C@H]2C1(C)C [ACETYL OLEANOLIC ACID] | 7.6 µM | > 10 µM | > 10 µM | 5.8 µM | 7.6 µM | – | – | – | – | – | –
CC(=O)OC[C@@]1(C)[C@@H]2CC[C@]3(C)[C@H](CC=C4[C@@H]5CC(C)(C)CC[C@]5(C(=O)OCCCCCCO[N+](=O)[O-])CC[C@]43C)[C@@]2(C)CC[C@@H]1OC(C)=O | 4.9 µM | 5.1 µM | 4.6 µM | 4.7 µM | 4.8 µM | Active | – | – | – | – | –
CC1(C)CC[C@]2(C(=O)OCCCCCCO[N+](=O)[O-])CC[C@]3(C)C(=CC[C@@H]4[C@@]5(C)CC[C@H](O)[C@@](C)(CO)[C@@H]5CC[C@]43C)[C@@H]2C1 | > 40 µM | > 10 µM | > 10 µM | > 10 µM | > 10 µM | – | – | – | – | – | –
CC1(C)CC[C@]2(C(=O)OCCCCO[N+](=O)[O-])CC[C@]3(C)C(=CC[C@@H]4[C@@]5(C)CC[C@H](O)C(C)(C)[C@@H]5CC[C@]43C)[C@@H]2C1 | > 10 µM | > 10 µM | > 10 µM | 9.2 µM | > 10 µM | – | – | – | – | – | –
CC1(C)CC[C@]2(C(=O)OCCCCO[N+](=O)[O-])CC[C@]3(C)C(=CC[C@@H]4[C@@]5(C)CC[C@H](OC(=O)c6ccccc6)C(C)(C)[C@@H]5CC[C@]43C)[C@@H]2C1 | > 10 µM | > 10 µM | > 10 µM | > 10 µM | > 10 µM | – | > 10 µM | > 10 µM | > 20 µM | > 20 µM | > 20 µM
CC1(C)CC[C@]2(C(=O)OCCO[N+](=O)[O-])CC[C@]3(C)C(=CC[C@@H]4[C@@]5(C)CC[C@H](O)C(C)(C)[C@@H]5CC[C@]43C)[C@@H]2C1 | 6.4 µM | 5.5 µM | 5.5 µM | 4.7 µM | 5 µM | Active | > 10 µM | > 10 µM | > 20 µM | 0.11 µM | 0.03 µM
CC1(C)CC[C@]2(C(=O)OCCCCCCO[N+](=O)[O-])CC[C@]3(C)C(=CC[C@@H]4[C@@]5(C)CC[C@H](O)C(C)(C)[C@@H]5CC[C@]43C)[C@@H]2C1 | > 10 µM | > 10 µM | > 10 µM | > 10 µM | > 10 µM | – | – | – | – | – | –
CC1(C)CC[C@]2(C(=O)O)CC[C@]3(C)C(=CC[C@@H]4[C@@]5(C)CC[C@H](O)C(C)(C)[C@@H]5CC[C@]43C)[C@@H]2C1 [OLEANOLIC_ACID] | > 10 µM | > 10 µM | > 10 µM | 6.4 µM | > 10 µM | – | > 10 µM | > 10 µM | > 20 µM | > 20 µM | > 20 µM
CC(=O)O[C@H]1CC[C@]2(C)[C@H]3CC=C4[C@@H]5CC(C)(C)CC[C@]5(C(=O)OCCO[N+](=O)[O-])CC[C@@]4(C)[C@]3(C)CC[C@H]2C1(C)C | > 10 µM | 7.9 µM | 6.8 µM | 6.3 µM | 4.9 µM | Active | – | – | – | – | –
CC1(C)CC[C@]2(C(=O)OCCO[N+](=O)[O-])CC[C@]3(C)C(=CC[C@@H]4[C@@]5(C)CC[C@H](O)[C@@](C)(CO)[C@@H]5CC[C@]43C)[C@@H]2C1 | > 10 µM | 9.2 µM | > 10 µM | > 10 µM | 9.5 µM | Active | – | – | – | – | –

From ChEMBL document CHEMBL4414650, “Discovery of an Oleanolic Acid/Hederagenin-Nitric Oxide Donor Hybrid as an EGFR Tyrosine Kinase Inhibitor for Non-Small-Cell Lung Cancer” (J Nat Prod, 2019)
